According to patent publication US20250134667A1, “BIOABSORBABLE AND PHOTOCURABLE COMPOSITION, BIOABSORBABLE GUIDED TISSUE REGENERATION COMPOSITION, AND GRAFTING METHOD USING SAME” (priority 2022, published 2025):
Peptide text beside a SMILES is read from it.

How the values were obtained:
[1] = system: gingival tissue of a rabbit; test: Tissue penetration ability in animal tissue, rabbit; assay type: in vivo; conditions: living rabbit
Experimental: (§1) The amine group of the peptide having the amino acid of SEQ ID NO: 1 was labeled with fluorescence using Alexa Fluor™ 680 NHS Ester (Thermo Fisher, A20008). The fluorescent labeling method followed the method provided by the manufacturer. The fluorescently labeled peptide was dissolved in water for injection at a concentration of 250 mg/ml, and 10 μL was injected into the gingival sulcus of the premolars of an adult dog (beagle dog) and the anterior gingival sulcus of a rabbit. After 2 hours, to check the permeability of the peptide in the tissue, the animal was sacrificed, the gingival tissue was collected, and tissues were embedded using Tissue-Tek® O.C.T. Compound (Sakura Finetek, 4583). After sectioning the embedded tissue at 10 μm thickness, fluorescently labeled peptides were confirmed using a confocal scanning fluorescence microscope. The nuclei of tissue cells were stained using DAPI.

Raw264.7 cells = test: Cell penetration ability at the cellular level (confocal microscopy); assay type: cell-based, mouse; conditions: 50, 100, 200 μM, 1 hour
Experimental: The N-terminus of the peptide having the amino acid of SEQ ID NO: 1 prepared in Example 1 was fluorescently labeled with Rhodamine B (Tokyo chemical industry Co., LTD., A5102). Raw264.7 cells were distributed 3×10^4 each into a 4-well chamber and cultured in DMEM medium for 24 hours to stabilize the cells. After 24 hours, fluorescently labeled peptide was added to the medium at concentrations of 50, 100, and 200 μM. After 1 hour of peptide treatment, a degree of penetration of the peptide into cells was observed using a confocal scanning fluorescence microscope […]. Cell nuclei were stained using 4′,6-diamidino-2-phenylindole (DAPI, Thermo Fisher, D1306). DIC represents the case observed under a general microscope, Nuceli represents the nucleus of a cell, Peptide represents the degree of penetration of a peptide bound to rhodamine B, and MERGE represents an image that overlaps images of DIC, Nuclei, and the penetrated peptide.

pNFκB = test: Western blot of pNFkB in Raw264.7 cells; assay type: cell-based, mouse; conditions: only the peptide, no LPS
Experimental: (§2) Raw264.7 cells were purchased from ATCC (American Type Culture Collection) and used in the experiment. Raw264.7 cells were cultured in a CO2 incubator at 37° C. supplied with 5% CO2 and 95% air using DMEM (Dulbecco's modified Eagle medium) medium supplemented with 10% FBS and 100 units/ml antibiotics (penicillin-streptomycin).
[…] After 8 hours, the treated cells were collected, protease inhibitor cocktail and phosphatase inhibitor cocktail were added to Radioimmunoprecipitation assay buffer (RIPA buffer solution, Thermo Fisher, 89900), and the cells were treated to lyse the cells. After centrifuging the cell lysate and collecting the supernatant, the concentration of the cell lysate was measured using a bicinchoninic acid assay (BCA assay, Thermo Fisher, 23227), and RIPA buffer solution was added thereto to prepare the cell lysate to a final concentration of 5 mg/mL. Then, it was mixed with a buffer solution including 1 M Tris-HCl (pH 6.8), 50% glycerol, and 10% SDS in a 4:1 ratio, and then sodium dodecyl sulfate-poly acrylamide gel electrophoresis (SDS-PAGE) was performed. […]

plkBa = test: Western blot of plkBa in Raw264.7 cells; assay type: cell-based, mouse; conditions: only the peptide, no LPS
Experimental: as §2
Raw264.7 cells were treated with 200 μM of the peptide having the amino acid sequence of SEQ ID NO: 1 for 30 minutes, and then treated with 1 μg/ml LPS (lipopolysaccharide, Merck, L3024). After 8 hours, the treated cells were collected, protease inhibitor cocktail and phosphatase inhibitor cocktail were added to Radioimmunoprecipitation assay buffer (RIPA buffer solution, Thermo Fisher, 89900), and the cells were treated to lyse the cells. After centrifuging the cell lysate and collecting the supernatant, the concentration of the cell lysate was measured using a bicinchoninic acid assay (BCA assay, Thermo Fisher, 23227), and RIPA buffer solution was added thereto to prepare the cell lysate to a final concentration of 5 mg/mL. Then, it was mixed with a buffer solution including 1 M Tris-HCl (pH 6.8), 50% glycerol, and 10% SDS in a 4:1 ratio, and then sodium dodecyl sulfate-poly acrylamide gel electrophoresis (SDS-PAGE) was performed. […]

[2] = system: gingival tissue of an adult dog; test: Tissue penetration ability in animal tissue, adult dog; assay type: in vivo, adult dog (beagle dog)
Experimental: as §1

C[C@@H](O)[C@H](NC(=O)[C@H](CO)NC(=O)[C@H](CS)NC(=O)[C@H](CCCCN)NC(=O)CN)C(=O)N[C@@H](CCCNC(=N)N)C(=O)NCC(=O)N[C@@H](CCCNC(=N)N)C(=O)N[C@@H](CCCCN)C(=O)N[C@@H](CO)C(=O)N[C@@H](CO)C(=O)N[C@@H](CCCNC(=N)N)C(=O)N[C@@H](CCCNC(=N)N)C(=O)N[C@@H](CCCCN)C(=O)N[C@@H](CCCCN)C(N)=O [SEQ ID NO: 1, GKCSTRGRKSSRRKK] (H-GKCSTRGRKSSRRKK-NH2; N-terminus and C-terminus assumed)
penetration into gingival tissue (in words) [1]: penetrated | concentration dependence of intracellular fluorescence (Raw264.7 cells): as the concentration of peptide increased, the intensity of fluorescence also increased | expression of pNFκB, peptide only (pNFκB): no effect | expression of plkBa, peptide only (plkBa): no effect | penetration into gingival tissue (in words) [2]: penetrated
